Results on four compounds are retold here after patent publication US20250382344A1, “Soluble GLP1/GIP/NPY2 Receptor Triple Agonists” (Boehringer Ingelheim International GmH, priority 2024, published 2025).

Series [1] addresses T1, hGIPR (Homo sapiens, UniProt P48546).
T1 construct: expressed in transfected cells; host or cells: CHO CRE-luciferase reporter cells
T1 sequence (P48546 22-466): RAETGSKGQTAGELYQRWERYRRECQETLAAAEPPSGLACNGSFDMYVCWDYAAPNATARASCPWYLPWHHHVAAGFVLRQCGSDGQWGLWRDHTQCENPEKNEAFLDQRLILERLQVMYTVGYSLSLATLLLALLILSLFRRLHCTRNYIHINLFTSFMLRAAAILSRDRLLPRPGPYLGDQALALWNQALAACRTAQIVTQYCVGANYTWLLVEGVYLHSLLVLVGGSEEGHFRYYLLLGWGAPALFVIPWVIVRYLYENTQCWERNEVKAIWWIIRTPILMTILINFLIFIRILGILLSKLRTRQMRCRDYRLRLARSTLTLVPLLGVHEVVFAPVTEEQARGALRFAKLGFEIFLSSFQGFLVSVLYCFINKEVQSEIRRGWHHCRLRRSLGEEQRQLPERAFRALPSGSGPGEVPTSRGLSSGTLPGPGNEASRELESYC
The series is described as follows: hGIPR CreLuc assay in 0.5% and 100% plasma (CHO CRE-luciferase reporter cells). Format: cell-based. The settings on record: 0.5% human plasma.

A short description of series [2]: Solubility in 0.1 M phosphate buffer at pH 7. The conditions noted are these: 0.1 M phosphate buffer at pH 7, 10 mg/mL final peptide concentration, shaking 2 hours at room temperature, peptides as TFA-salts; measured sample pH 6.5-7.0. The format is physicochemical.

Where two headings read alike, the source gives them in different places.

With `CC[C@H](C)[C@H](NC(=O)[C@H](CC(C)C)NC(=O)[C@H](Cc1c[nH]cn1)NC(=O)[C@H](CCCNC(=N)N)NC(=O)[C@@H](NC(=O)[C@H](Cc1ccccc1)NC(=O)[C@H](C)NC(=O)C(C)(C)NC(=O)[C@H](CCC(N)=O)NC(=O)[C@H](C)NC(=O)[C@H](CCC(N)=O)NC(=O)[C@H](CCCCN)NC(=O)[C@H](CCC(=O)O)NC(=O)[C@H](CC(C)C)NC(=O)C(C)(C)NC(=O)[C@@H](NC(=O)[C@H](CO)NC(=O)[C@H](Cc1ccc(O)cc1)NC(=O)[C@H](CC(=O)O)NC(=O)[C@H](CO)NC(=O)[C@@H](NC(=O)[C@H](Cc1ccccc1)NC(=O)[C@@H](NC(=O)CNC(=O)[C@H](CCC(=O)O)NC(=O)C(C)(C)NC(=O)[C@@H](N)Cc1ccc(O)cc1)[C@@H](C)O)[C@@H](C)O)[C@@H](C)CC)C(C)C)C(=O)N[C@@H](CC(N)=O)C(=O)N[C@@H](CCCCNC(=O)[C@@H](N)CCCCNC(=O)CC[C@H](NC(=O)CC[C@H](NC(=O)CC[C@H](NC(=O)CC[C@H](NC(=O)CC[C@H](NC(=O)CC[C@H](NC(=O)CC[C@H](NC(=O)CCCCCCCCCCCCCCCCCCC(=O)O)C(=O)O)C(=O)O)C(=O)O)C(=O)O)C(=O)O)C(=O)O)C(=O)O)C(=O)NC(C)(C)C(=O)N[C@H](C(=O)N[C@@H](CCCNC(=N)N)C(=O)N[C@@H](CCC(N)=O)C(=O)N[C@@H](CCCNC(=N)N)C(=O)N[C@@H](Cc1ccc(O)cc1)C(N)=O)[C@@H](C)O` [Compound 35, Y-Aib-E-G-T-F-T-S-D-Y-S-I-Aib-L-E-K-Q-A-Q-Aib-A-F-V-R-H-L-I-N-K(1,3)-Aib-T-R-Q-R-Y-NH2.C20DA-gGlu-gGlu-gGlu-gGlu-gGlu-gGlu-gGlu-eLys(1,2)], the EC50 in series [1] (read-out: hGIPR 0.5% hP) was determined as 0.7 nM. Besides, in series [2], the solubility at 2 h was determined as 5200 µg/mL.
With `CC[C@H](C)[C@H](NC(=O)[C@H](CC(C)C)NC(=O)[C@H](Cc1c[nH]cn1)NC(=O)[C@H](CCCNC(=N)N)NC(=O)[C@@H](NC(=O)[C@H](Cc1ccccc1)NC(=O)[C@H](C)NC(=O)C(C)(C)NC(=O)[C@H](CCC(N)=O)NC(=O)[C@H](C)NC(=O)[C@H](CCC(N)=O)NC(=O)[C@H](CCCCN)NC(=O)[C@H](CCC(=O)O)NC(=O)[C@H](CC(C)C)NC(=O)C(C)(C)NC(=O)[C@@H](NC(=O)[C@H](CO)NC(=O)[C@H](Cc1ccc(O)cc1)NC(=O)[C@H](CC(=O)O)NC(=O)[C@H](CO)NC(=O)[C@@H](NC(=O)[C@H](Cc1ccccc1)NC(=O)[C@@H](NC(=O)CNC(=O)[C@H](CCC(=O)O)NC(=O)C(C)(C)NC(=O)[C@@H](N)Cc1ccc(O)cc1)[C@@H](C)O)[C@@H](C)O)[C@@H](C)CC)C(C)C)C(=O)N[C@@H](CC(N)=O)C(=O)N[C@@H](CCCCNC(=O)[C@@H](N)CCNC(=O)CC[C@H](NC(=O)CC[C@H](NC(=O)CC[C@H](NC(=O)CC[C@H](NC(=O)CC[C@H](NC(=O)CC[C@H](NC(=O)CCCCCCCCCCCCCCCCCCC(=O)O)C(=O)O)C(=O)O)C(=O)O)C(=O)O)C(=O)O)C(=O)O)C(=O)NC(C)(C)C(=O)N[C@H](C(=O)N[C@@H](CCCNC(=N)N)C(=O)N[C@@H](CCC(N)=O)C(=O)N[C@@H](CCCNC(=N)N)C(=O)N[C@@H](Cc1ccc(O)cc1)C(N)=O)[C@@H](C)O` [Compound 46, Y-Aib-E-G-T-F-T-S-D-Y-S-I-Aib-L-E-K-Q-A-Q-Aib-A-F-V-R-H-L-I-N-K(1,3)-Aib-T-R-Q-R-Y-NH2.C20DA-gGlu-gGlu-gGlu-gGlu-gGlu-gGlu-gDab(1,2)], in series [1] (read-out: hGIPR 0.5% hP), the EC50 amounted to 0.8 nM. Also, the solubility at 2 h in series [2] amounted to 4200 µg/mL.
In series [1] (hGIPR 0.5% hP (nM)), `CC[C@H](C)[C@H](NC(=O)[C@H](CC(C)C)NC(=O)[C@H](Cc1c[nH]cn1)NC(=O)[C@H](CCCNC(=N)N)NC(=O)[C@@H](NC(=O)[C@H](Cc1ccccc1)NC(=O)[C@H](C)NC(=O)C(C)(C)NC(=O)[C@H](CCC(N)=O)NC(=O)[C@H](C)NC(=O)[C@H](CCC(N)=O)NC(=O)[C@H](CCCCN)NC(=O)[C@H](CCC(=O)O)NC(=O)[C@H](CC(C)C)NC(=O)C(C)(C)NC(=O)[C@@H](NC(=O)[C@H](CO)NC(=O)[C@H](CC(C)C)NC(=O)[C@H](CC(=O)O)NC(=O)[C@H](CO)NC(=O)[C@@H](NC(=O)[C@H](Cc1ccccc1)NC(=O)[C@@H](NC(=O)CNC(=O)[C@H](CCC(=O)O)NC(=O)C(C)(C)NC(=O)[C@@H](N)Cc1ccc(O)cc1)[C@@H](C)O)[C@@H](C)O)[C@@H](C)CC)C(C)C)C(=O)N[C@@H](CC(N)=O)C(=O)N[C@@H](CCCCNC(=O)CC[C@H](NC(=O)CC[C@H](NC(=O)CC[C@H](NC(=O)CC[C@H](NC(=O)CC[C@H](NC(=O)CC[C@H](NC(=O)CCCCCCCCCCCCCCCCCCC(=O)O)C(=O)O)C(=O)O)C(=O)O)C(=O)O)C(=O)O)C(=O)O)C(=O)NC(C)(C)C(=O)N[C@H](C(=O)N[C@@H](CCCNC(=N)N)C(=O)N[C@@H](CCC(N)=O)C(=O)N[C@@H](CCCNC(=N)N)C(=O)N[C@@H](Cc1ccc(O)cc1)C(N)=O)[C@@H](C)O` [Compound 51, Y-Aib-E-G-T-F-T-S-D-L-S-I-Aib-L-E-K-Q-A-Q-Aib-A-F-V-R-H-L-I-N-K(1,3)-Aib-T-R-Q-R-Y-NH2.C20DA-gGlu-gGlu-gGlu-gGlu-gGlu-gGlu(1,2)] yielded an EC50 of 0.5 nM. Besides, the solubility at 2 h in series [2] amounted to 9300 µg/mL.
Consider `CC[C@H](C)[C@H](NC(=O)[C@H](CC(C)C)NC(=O)[C@H](Cc1c[nH]cn1)NC(=O)[C@H](CCCNC(=N)N)NC(=O)[C@@H](NC(=O)[C@H](Cc1ccccc1)NC(=O)[C@H](C)NC(=O)C(C)(C)NC(=O)[C@H](CCC(N)=O)NC(=O)[C@H](C)NC(=O)[C@H](CCC(N)=O)NC(=O)[C@H](CCCCN)NC(=O)[C@H](CCC(=O)O)NC(=O)[C@H](CC(C)C)NC(=O)C(C)(C)NC(=O)[C@@H](NC(=O)[C@H](CO)NC(=O)[C@H](Cc1ccc(O)cc1)NC(=O)[C@H](CC(=O)O)NC(=O)[C@H](CO)NC(=O)[C@@H](NC(=O)[C@H](Cc1ccccc1)NC(=O)[C@@H](NC(=O)CNC(=O)[C@H](CCC(=O)O)NC(=O)C(C)(C)NC(=O)[C@@H](N)Cc1ccc(O)cc1)[C@@H](C)O)[C@@H](C)O)[C@@H](C)CC)C(C)C)C(=O)N[C@@H](CC(N)=O)C(=O)N[C@@H](CCCCNC(=O)[C@@H](N)CCCCNC(=O)CC[C@H](NC(=O)CC[C@H](NC(=O)CC[C@H](NC(=O)CC[C@H](NC(=O)CC[C@H](NC(=O)CCCCCCCCCCCCCCCCCCC(=O)O)C(=O)O)C(=O)O)C(=O)O)C(=O)O)C(=O)O)C(=O)NC(C)(C)C(=O)N[C@H](C(=O)N[C@@H](CCCNC(=N)N)C(=O)N[C@@H](CCC(N)=O)C(=O)N[C@@H](CCCNC(=N)N)C(=O)N[C@@H](Cc1ccc(O)cc1)C(N)=O)[C@@H](C)O` [Compound 59, Y-Aib-E-G-T-F-T-S-D-Y-S-I-Aib-L-E-K-Q-A-Q-Aib-A-F-V-R-H-L-I-N-K(1,3)-Aib-T-R-Q-R-Y-NH2.C20DA-gGlu-gGlu-gGlu-gGlu-gGlu-eLys(1,2)], for which the EC50 in series [1] (read-out: hGIPR 0.5% hP) came to 0.4 nM. Further, the solubility at 2 h in series [2] is 2100 µg/mL.
